One assay has as its target MMP-3 (stromelysin) (Homo sapiens, UniProt P08254). The assay is described as follows: biochemical. It is filed as biochemical. To be noted: read-out: IC50 MMP3.
Chain of MMP-3 (stromelysin) (P08254 100-477): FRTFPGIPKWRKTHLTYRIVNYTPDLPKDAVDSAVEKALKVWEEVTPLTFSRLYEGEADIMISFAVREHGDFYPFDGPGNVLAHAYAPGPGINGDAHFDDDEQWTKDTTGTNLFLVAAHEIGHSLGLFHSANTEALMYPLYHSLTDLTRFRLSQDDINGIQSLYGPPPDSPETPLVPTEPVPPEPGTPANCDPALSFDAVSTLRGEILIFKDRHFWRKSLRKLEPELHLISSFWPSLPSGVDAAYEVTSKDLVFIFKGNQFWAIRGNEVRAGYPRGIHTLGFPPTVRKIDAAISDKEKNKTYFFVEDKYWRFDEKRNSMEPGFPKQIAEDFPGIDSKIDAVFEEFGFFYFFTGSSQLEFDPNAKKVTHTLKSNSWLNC
Description: (§1) The assays measure the amount by which a test compound reduces the hydrolysis of a thiopeptolide substrate caused by a matrix metalloproteinase enzyme.
(§2) Thiopeptolide substrates show virtually no decomposition or hydrolysis in the absence of a matrix metalloproteinase enzyme. A typical thiopeptolide substrate commonly utilized for assays is Ac-Pro-Leu-Gly-thioester-Leu-Leu-Gly-O Et. […] Assays are carried out with and without matrix metalloproteinase inhibitor compounds, and the amount of hydrolysis is compared for a determination of inhibitory activity of the test compounds.
For `O=C(O)CCC(=NO)c1ccc(-c2ccc(Br)cc2)cc1` [4-(4'-Bromo-biphenyl-4-yl)-4-hydroxyimino-butyric acid], the IC50 is 110 nM.
The same measure, in the same setting: the figure for `CN(C)N=C(CCC(=O)O)c1ccc(-c2ccc(Cl)cc2)cc1` [4-(4'-Chloro-biphenyl-4-yl)-4-(dimethylhydrazono)-butyric acid] is 930 nM; for `O=C(Cc1ccccc1)N[C@@H](CC(=O)c1ccc2oc3ccccc3c2c1)C(=O)O` [(S)-4-Dibenzofuran-2-yl-4-oxo-2-phenylacetylamino-butyric acid] it is 330 nM; for `O=C(O)CCC(O)c1ccc(-c2ccc(Cl)cc2)cc1` (racemic) [(±)-4-(4'-Chloro-biphenyl-4-yl)-4-hydroxy-butyric acid] it is 280 nM.
The same measure, in the same setting: the value for `CC(C)CC(CC(=O)NO)C(=O)N[C@@H](CC(C)C)C(=O)N[C@@H](Cc1ccccc1)C(N)=O` (stereo partly shown) [Compound U24522, reference compound] was 20 nM.
On the same count and under the same terms, the figure for `O=C(O)CCC(=NO)c1ccc(-c2ccc(Cl)cc2)cc1` [4-(4'-Chloro-biphenyl-4-yl)-4-hydroxyimino-butyric acid] is 120 nM.

In a further assay the target is T1, MMP-2 (Gelatinase A) (Homo sapiens, UniProt P08253).
T1 sequence (P08253 110-660): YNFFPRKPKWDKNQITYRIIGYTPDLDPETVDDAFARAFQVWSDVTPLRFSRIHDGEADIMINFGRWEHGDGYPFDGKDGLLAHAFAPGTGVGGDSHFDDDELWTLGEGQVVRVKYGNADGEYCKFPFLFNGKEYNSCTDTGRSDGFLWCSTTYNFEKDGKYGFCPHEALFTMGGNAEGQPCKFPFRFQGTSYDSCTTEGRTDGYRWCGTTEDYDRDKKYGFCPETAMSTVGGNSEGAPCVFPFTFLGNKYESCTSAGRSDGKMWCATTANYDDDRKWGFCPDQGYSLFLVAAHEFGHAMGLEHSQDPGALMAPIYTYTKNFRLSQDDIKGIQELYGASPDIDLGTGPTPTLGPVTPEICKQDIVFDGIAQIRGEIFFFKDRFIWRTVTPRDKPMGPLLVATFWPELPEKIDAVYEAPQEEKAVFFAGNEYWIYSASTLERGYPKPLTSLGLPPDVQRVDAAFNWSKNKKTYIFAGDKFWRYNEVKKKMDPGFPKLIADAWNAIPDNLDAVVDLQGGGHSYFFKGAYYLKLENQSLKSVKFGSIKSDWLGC
The assay is described as follows: biochemical. The settings on record: read-out: IC50 MMP2.
Description: as §1, §2
For the compound `O=C(Cc1ccccc1)N[C@@H](CC(=O)c1ccc2oc3ccccc3c2c1)C(=O)O` [(S)-4-Dibenzofuran-2-yl-4-oxo-2-phenylacetylamino-butyric acid], the IC50 amounted to 84 nM.

One may read the IC50 as the concentration at which inhibition is half-maximal.

Values taken from patent US5948780A, “Method for treating and preventing heart failure and ventricular dilatation” (priority 1997, dated 1999).
